Among the data in the supplement of paper PMC10307832 are relative viability values, retold here.

What all share (experiment): relative viability (nuclei count vs DMSO), 5 days (fraction); higher = more cells survive
Compound in assay [1]: COc1cc(Nc2ncc(F)c(Nc3ccc4c(n3)NC(=O)C(C)(C)O4)n2)cc(OC)c1OC [R406] + Cc1cc(Nc2cc(N3CCN(C)CC3)nc(Sc3ccc(NC(=O)C4CC4)cc3)n2)n[nH]1 [Tozasertib] (partner 0.1 µM)
The procedure, abridged: (§1)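 The day after seeding in 1536-well plates, lung cancer cell lines were treated by pin tool with a single drug, or with a fixed anchor-drug dose together with five library-drug doses (not always all listed) in √10 steps. After 5 days, a combined fix-and-stain solution (final 0.05% Triton X-100, 1% formaldehyde, 1 ug/ml Hoechst) was added. Nuclei counted on 4× images gave relative viability as treated counts over vehicle counts, reported as the median of duplicate plates.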

Compound in assay [2]: O=C(/C=C/c1cccnc1)NCCCCC1CCN(C(=O)c2ccccc2)CC1 [Daporinad] + O=C(c1cc(Cc2n[nH]c(=O)c3ccccc23)ccc1F)N1CCN(C(=O)C2CC2)CC1 [Olaparib] (partner 8 µM)
Put shortly: as §1

Compound in assay [3]: O=C(/C=C/c1cccnc1)NCCCCC1CCN(C(=O)c2ccccc2)CC1 [Daporinad] + Cc1nc(Nc2ncc(C(=O)Nc3c(C)cccc3Cl)s2)cc(N2CCN(CCO)CC2)n1 [Dasatinib] (partner 0.075 µM)
Put shortly: as §1

Compound in assay [4]: O=C(/C=C/c1cccnc1)NCCCCC1CCN(C(=O)c2ccccc2)CC1 [Daporinad] + CC(C)C[C@H](NC(=O)[C@H](Cc1ccccc1)NC(=O)c1cnccn1)B(O)O [Bortezomib] (partner 0.002 µM)
Put shortly: as §1

As to UMC-11, the relative viability in assay [1] (first compound 0.08 µM) was determined as 0.203; in assay [1] (first compound 0.253 µM) it was 0.207; in assay [1] (first compound 0.8 µM), 0.205; in assay [1] (first compound 2.53 µM), 0.25; in assay [1] (first compound 8 µM) it was 0.185; in assay [2] (first compound 0.0005 µM) it was 0.294. Also, the relative viability came out at 0.339 in assay [2] (first compound 0.001581 µM); 0.343 in assay [2] (first compound 0.005 µM); 0.309 in assay [2] (first compound 0.01581 µM); 0.486 in assay [3] (first compound 0.0005 µM); 0.507 in assay [3] (first compound 0.001581 µM); 0.394 in assay [3] (first compound 0.005 µM). The relative viability in assay [3] (first compound 0.01581 µM) is 0.505; in assay [4] (first compound 0.0005 µM), 0.668; in assay [4] (first compound 0.001581 µM), 0.373; in assay [4] (first compound 0.005 µM) it was 0.678; in assay [4] (first compound 0.01581 µM) it was 0.827.
